Test results from patent US5543415A, “Antidepressants” (Kyowa Hakko Kogyo Co., Ltd., priority 1992, dated 1996).

What follows are molecules tested on ddY-strain male mice (assay: Acute Toxicity Test (minimum lethal dose, oral)). Conditions: seven days after administration.
Assay type: in vivo
Experimental: Test compounds were orally administered to groups of ddY-strain male mice weighing 20±1 g, each group consisting of three mice. Seven days after the administration, minimum lethal dose (MLD) of each compound was determined by observing the mortality.

SMILES | MLD (minimum lethal dose)
CCn1c(=O)c2[nH]c(/C=C/c3ccc(OC)c(OC)c3Cl)nc2n(CC)c1=O [Compound 105, (E)-8-(2-Chloro-3,4-dimethoxystyryl)-1,3-diethylxanthine] | > 100 mg/kg
CCn1c(=O)c2c(nc(/C=C/c3ccc(OC)c(OC)c3Cl)n2C)n(CC)c1=O [Compound 106, (E)-8-(2-Chloro-3,4-dimethoxystyryl)-1,3-diethyl-7-methylxanthine] | > 300 mg/kg
COc1ccc(/C=C/c2nc3c([nH]2)c(=O)n(C)c(=O)n3C)c(Cl)c1OC [Compound 107, (E)-8-(2-Chloro-3,4-dimethoxystyryl)theophylline] | > 100 mg/kg
COc1ccc(/C=C/c2nc3c(c(=O)n(C)c(=O)n3C)n2C)c(Cl)c1OC [Compound 108, (E)-8-(2-Chloro-3,4-dimethoxystyryl)caffeine] | > 300 mg/kg
CCn1c(=O)c2[nH]c(/C=C/c3cc(C)ccc3C)nc2n(CC)c1=O [Compound 109, (E)-8-(2,5-Dimethylstyryl)-1,3-diethylxanthine] | > 300 mg/kg
CCn1c(=O)c2c(nc(/C=C/c3cc(C)ccc3C)n2C)n(CC)c1=O [Compound 110, (E)-8-(2,5-Dimethylstyryl)-1,3-diethyl-7-methylxanthine] | > 300 mg/kg
CCn1c(=O)c2[nH]c(/C=C/c3ccc(F)c(F)c3)nc2n(CC)c1=O [Compound 111, (E)-8-(3,4-Difluorostyryl)-1,3-diethylxanthine] | > 300 mg/kg
CCn1c(=O)c2c(nc(/C=C/c3ccc(F)c(F)c3)n2C)n(CC)c1=O [Compound 112, (E)-8-(3,4-Difluorostyryl)-1,3-diethyl-7-methylxanthine] | > 300 mg/kg
CCn1c(=O)c2[nH]c(/C=C/c3ccc(OC)c(Br)c3)nc2n(CC)c1=O [Compound 113, (E)-8-(3-Bromo-4-methoxystyryl)-1,3-diethylxanthine] | > 100 mg/kg
COc1ccc(/C=C/c2nc3c([nH]2)c(=O)n(C)c(=O)n3C)cc1Br [Compound 115, (E)-8-(3-Bromo-4-methoxystyryl)theophylline] | > 100 mg/kg
COc1ccc(/C=C/c2nc3c(c(=O)n(C)c(=O)n3C)n2C)cc1Br [Compound 116, (E)-8-(3-Bromo-4-methoxystyryl)caffeine] | > 300 mg/kg
CCn1c(=O)c2[nH]c(/C=C/c3cc(OC)c(OC)cc3Br)nc2n(CC)c1=O [Compound 117, (E)-8-(2-Bromo-4,5-dimethoxystyryl)-1,3-diethylxanthine] | > 100 mg/kg
CCn1c(=O)c2c(nc(/C=C/c3cc(OC)c(OC)cc3Br)n2C)n(CC)c1=O [Compound 118, (E)-8-(2-Bromo-4,5-dimethoxystyryl)-1,3-diethyl-7-methylxanthine] | > 100 mg/kg
CCn1c(=O)c2[nH]c(/C=C/c3cc(OC)c(OC)cc3[N+](=O)[O-])nc2n(CC)c1=O [Compound 119, (E)-8-(4,5-Dimethoxy-2-nitrostyryl)-1,3-diethylxanthine] | > 100 mg/kg
CCn1c(=O)c2c(nc(/C=C/c3cc(OC)c(OC)cc3[N+](=O)[O-])n2C)n(CC)c1=O [Compound 120, (E)-8-(4,5-Dimethoxy-2-nitrostyryl)-1,3-diethyl-7-methylxanthine] | > 300 mg/kg
CCn1c(=O)c2[nH]c(/C=C/c3cccc(OC)c3[N+](=O)[O-])nc2n(CC)c1=O [Compound 121, (E)-1,3-Diethyl-8-(3-methoxy-2-nitrostyryl)xanthine] | > 300 mg/kg
CCn1c(=O)c2c(nc(/C=C/c3cccc(OC)c3[N+](=O)[O-])n2C)n(CC)c1=O [Compound 122, (E)-1,3-Diethyl-8-(3-methoxy-2-nitrostyryl)-7-methyl-xanthine] | > 100 mg/kg

SMILES | MLD (minimum lethal dose)
CCOc1ccc(/C=C/c2nc3c([nH]2)c(=O)n(CC)c(=O)n3CC)cc1 [Compound 123, (E)-8-(4-Ethoxystyryl)-1,3-diethylxanthine] | > 100 mg/kg
CCCOc1ccc(/C=C/c2nc3c([nH]2)c(=O)n(CC)c(=O)n3CC)cc1 [Compound 125, (E)-1,3-Diethyl-8-(4-propoxystyryl)xanthine] | > 100 mg/kg
CCn1c(=O)c2[nH]c(/C=C/c3cccc(F)c3)nc2n(CC)c1=O [Compound 127, (E)-1,3-Diethyl-8-(3-fluorostyryl)xanthine] | > 100 mg/kg
CCn1c(=O)c2c(nc(/C=C/c3cccc(F)c3)n2C)n(CC)c1=O [Compound 128, (E)-1,3-Diethyl-8-(3-fluorostyryl)-7-methylxanthine] | > 300 mg/kg
CCn1c(=O)c2[nH]c(/C=C/c3cc(OC)cc(OC)c3)nc2n(CC)c1=O [Compound 129, (E)-8-(3,5-Dimethoxystyryl)-1,3-diethylxanthine] | > 100 mg/kg
CCn1c(=O)c2[nH]c(/C=C/c3cccc(Cl)c3)nc2n(CC)c1=O [Compound 131, (E)-8-(3-Chlorostyryl)-1,3-diethylxanthine] | > 100 mg/kg
CCn1c(=O)c2c(nc(/C=C/c3cccc(Cl)c3)n2C)n(CC)c1=O [Compound 132, (E)-8-(3-Chlorostyryl)-1,3-diethyl-7-methylxanthine] | > 300 mg/kg
CCn1c(=O)c2[nH]c(/C(C)=C/c3ccccc3)nc2n(CC)c1=O [Compound 133, (E)-1,3-Diethyl-8-(α-methylstyryl)xanthine] | > 100 mg/kg
CCn1c(=O)c2c(nc(/C(C)=C/c3ccccc3)n2C)n(CC)c1=O [Compound 134, (E)-1,3-Diethyl-7-methyl-8-(α-methylstyryl)xanthine] | > 300 mg/kg
CCn1c(=O)c2[nH]c(/C=C/c3ccc(C(F)(F)F)cc3)nc2n(CC)c1=O [Compound 135, (E)-1,3-Diethyl-8-(4-trifluoromethylstyryl)xanthine] | > 100 mg/kg
CCn1c(=O)c2c(nc(/C=C/c3ccc(C(F)(F)F)cc3)n2C)n(CC)c1=O [Compound 136, (E)-1,3-Diethyl-7-methyl-8-(4-trifluoromethylstyryl)xanthine] | > 300 mg/kg
CCn1c(=O)c2[nH]c(/C=C/c3cccc(OC)c3)nc2n(CC)c1=O [Compound 139, (E)-1,3-Diethyl-8-(3-methoxystyryl)xanthine] | > 100 mg/kg
CCn1c(=O)c2c(nc(/C=C/c3cccc(OC)c3)n2C)n(CC)c1=O [Compound 140, (E)-1,3-Diethyl-8-(3-methoxystyryl)-7-methylxanthine] | > 300 mg/kg
CCn1c(=O)c2[nH]c(/C=C/c3ccc(Br)cc3)nc2n(CC)c1=O [Compound 141, (E)-8-(4-Bromostyryl)-1,3-diethylxanthine] | > 100 mg/kg
CCn1c(=O)c2c(nc(/C=C/c3ccc(Br)cc3)n2C)n(CC)c1=O [Compound 142, (E)-8-(4-Bromostyryl)-1,3-diethyl-7-methylxanthine] | > 100 mg/kg
CCn1c(=O)c2[nH]c(/C=C/c3cccc(OC(F)(F)F)c3)nc2n(CC)c1=O [Compound 143, (E)-1,3-Diethyl-8-(3-trifluoromethoxystyryl)xanthine] | > 100 mg/kg
